Experiments:
[1] = test system: patient derived Ewing sarcoma xenografts; test: Combination in vivo study in Ewing sarcoma PDX; design: species or system NSG mice
γH2AX in A673 cells = test: γ-H2AX expression by flow cytometry; assay type: cell-based, human; settings: A673 compared to hMSC and cord blood CD34+ cells, 3h
Method: Staining of γ-H2AX antigen was carried out following the manufacturer's protocol. Briefly, human sarcoma cells and human mesenchymal stem cells were treated with various concentrations of BO-1055 at 37°C. At 3h, the cultures were washed with 1 ml of cold PBS three times, detached with 0.05% trypsin, and cells were pelleted. The pelleted cells were resuspended with 0.2 ml Cytofix/Cytoperm solution (BD Bioscience), incubated at 4°C for 20 minutes, and then washed with 1 ml cold Perm/Wash solution (BD Bioscience) three times. After anti-human γ-H2AX antibody (BD Bioscience) staining, the specimens were subjected to flow cytometric analysis via a Calibur flow instrument (BD Bioscience).

[2] = test system: benign cells (mesenchymal stromal cells, fetal lung fibroblasts and myofibroblasts, hematopoietic progenitor cells, endothelial cells, MS-5); test: Alamar blue cytotoxicity in benign cells; assay type: cell-based, human, murine; settings: up to 10 μM, most of the tested cells
Method: We also examined the effect of BO-1055 in inhibiting the cell growth of different types of benign cells including human mesenchymal stromal cells, fetal lung fibroblasts and myofibroblasts, hematopoietic progenitor cells, bone marrow derived endothelial cells and human umbilical vein endothelial cells and murine mesenchymal stromal cells, MS-5 (murine).
AlamarBlue® assay (Invitrogen, Carlsbad, CA, USA) was performed to evaluate anti-proliferative activity of the drugs in cell lines and primary cells. Cells were plated in 96-well plates ([…] in 200 μL of medium). After 12 h, one of the previously mentioned drugs was added to each well at the specified concentration and incubated for 72 h. At the end of the incubation period, 20 μL of stock solution (0.312 mg/mL) of the Alamar Blue was added to each well. The absorbance was measured using the Synergy H1 hybrid multi-mode microplate reader (BioTek, USA). The drug effect was quantified as the percentage of control absorbance at 540 nm and 585 nm. Optical density was determined for 3 replicates per treatment condition and cell proliferation in drug-treated cells was normalized to their respective controls. All experiments were performed in triplicate.

A204 xenografts = A204 xenografts in nude mice; assay type: in vivo
Method: All mouse experiments were performed at the animal core facility at MSKCC under an approved protocol following the IACUC guidelines. Five to seven-week-old NOD/SCID IL2R gamma null (NSG) mice (bred at the Mouse Genetics Core Facility, MSKCC) were used for in vivo experiments. All mouse experiments were done following the IACUC guidelines at the animal facility at MSKCC. Tumors were induced using 10^6 A673 cells or A204 cells in 0.2ml 1:1 cellular medium, Matrigel matrix (BD Bioscience, Bedford, MA) and injected subcutaneously (s.q) into the right flank. The tumors were measured every 3 d with a caliper, and the diameters were recorded. Tumor volume was calculated by the formula a^2 b/2 where ‘a’ is the smallest and ‘b’ is the largest diameter. When the tumors reached 100mm^3, we randomized mice into control and drug treatment groups. Treatment groups received BO-1055 by tail vein injection at 10mg/kg, 20mg/kg and 30mg/kg q2d x 5 doses for mice bearing A673 xenografts. BO-1055 was given at 30mg/kg q2d x 5 doses for mice bearing A204 xenografts. De-identified patient tumor tissues were obtained in accordance with and approval from the MSKCC Institutional Review Board (IRB). Appropriate written consent and assent were obtained from the patients prior to sample collection. […]

## CN(C)CCNC(=O)c1cccc(NC(=O)Nc2ccc(N(CCCl)CCCl)cc2)c1 [BO-1055]
[1]; BO-1055 IV plus Irinotecan IP, 10mg/kg/dose qd x 5 or 5mg/kg/dose qd x 5, day 14
  tumor regression in combination group compared to single drug groups: significantly greater
[1]; BO-1055 plus Irinotecan
  weight loss in combination group compared to single drug groups: No significant weight loss
γH2AX in A673 cells
  γH2AX level: significantly elevated
[2]
  cytotoxicity against benign cells: minimal to no cytotoxicity
A204 xenografts; 30mg/kg q2d x 5
  body weight: no significant decrease in body weight
A204 xenografts; 30mg/kg q2d x 5, tail vein
  tumor response: Complete regression of tumors

Source: PMC5190008, “BO-1055, a novel DNA cross-linking agent with remarkable low myelotoxicity shows potent activity in sarcoma models” (Oncotarget, 2016)
